# Experimental data as given in US12351587B2, “Bicyclic compound as RIP-1 kinase inhibitor and application thereof” (MEDSHINE DISCOVERY INC., priority 2019, dated 2025).
# Columns and labels:
# [1] = tested on: U937 cells; test: U937 cell activity assay: TNFα/QVD-OPh-induced programmed cell necrosis (necroptosis); assay type: cell-based, human; conditions: Homo sapiens, U-937, 24 h, QVD-OPh 25 μM + TNF-α 100 ng/mL, CellTiter Glo
# Method: 1.2 Instrument and Materials
# Envision plate reader (Perkin Elmer, Cat #2104-0010)
# 1.3 Formulation of Reagents • (1) 1×DPSB: To 100 mL of 10×DPBS was added 900 mL of deionized water. • (2) 1640 complete medium: To 89 mL of RPMI-1640 medium were added 10 mL of FBS and 1 mL of penicillin/streptomycin 2. Assay Steps • 1. U937 cells were centrifuged, and then the medium was discarded. The cells were resuspended in 1640 complete medium and counted. The cell concentration was adjusted to 5×10^5 cells/mL for use, and the cells were arranged according to compounds to be assayed. • 2. To the prepared resuspension of U937 cells were added QVD-OPh at a final concentration of 25 μM and TNF-α at a final concentration of 100 ng/mL, and then the mixture was mixed gently. • 3. To a 384-well plate was added 30 μL/well of U937 cells containing 25 μM of QVD-OPh and TNF-α at a final concentration of 100 ng/mL, and blank control wells without QVD-OPh and TNF-α were set up. • 4. To the dosing group […] added 10 μL of the assay compound at 4 times the preset concentration, and to the blank control well was added DMSO at the corresponding concentration. • 5. The 384-well plate was placed in a 37° C. and 5% CO2 cell incubator for 24 hours. • 6. After 24 hours, the 384-well plate was taken out and equilibrated at room temperature for 20 minutes. • 7. 40 μL of CTG was added to each well, and then the plate was shaken on a shaker in the dark for 2 minutes. • 8. The plate was incubated at room temperature in the dark for 10 minutes, and then read using an Envision plate reader.
# [2] = molecular target: T1, LIMK2 (Homo sapiens, UniProt P53671); test: Kinase selectivity assay (Eurofins, 33P radiolabeled kinase activity): LIMK2; assay type: biochemical; conditions: WX009 1 μM, ATP 10 μM, read-out: Inhibition rate
# T1 construct: purchased Eurofins Pharma Discovery Service
# Method: (§1) The purpose of this assay was to detect the in vitro inhibitory activity of WX009 on a variety of kinases. The kinases used in this assay included 413 kinases, and the activity detection method was provided by Eurofins Pharma Discovery Service A method of detecting ^33P radiolabeled kinase activity was used for the assay. The concentration of WX009 was 1 μM, and the concentration of ATP was 10 μM.
# [3] = tested on: L929 cells; test: In vitro activity assay of mouse RIP1: L929 cell TNFα/QVD-OPh-induced necroptosis; assay type: cell-based; conditions: TNF-α 50 ng/mL + Q-VD 50 μM, 24 h, CellTiter Glo
# Method: Assay Example 2: In Vitro Activity Assay of Mouse RIP1
# L929 (purchased from ATCC, Item No.: CCL-1)
# Instrument Microplate reader (Perkin Elmer, Envision) Formulation of Reagents L929 cell complete medium: EMEM+10% horse serum (volume ratio)+1% double antibiotics (volume ratio) Assay Step • 1. The cultured L929 cells were digested with trypsin, centrifuged, resuspended in complete culture medium, and then counted. The cell concentration was then diluted to 1×10^5/mL with complete culture medium. • 2. The cell suspension was added to a 96-well plate at 100 μL per well and incubated at 37° C. and 5% CO2 for 24 h. • 3. Different concentrations of assay compounds were added to each well, and dimethyl sulfoxide was added to the control group. The plate was incubated at 37° C. and 5% CO2 for 1 h. • 4. To each well were added TNF-α at a final concentration of 50 ng/mL and Q-VD at a final concentration of 50 μM, and the plate was incubated at 37° C. and 5% CO2 for 24 h. • 5. To each well was added 50 μL of CellTiter Glo […], and the plate was shaken in the dark for 10 min. • 6. The plate was read on the microplate reader.
# [4] = Plasma protein binding rate (PPB), rat plasma; assay type: in vitro ADME, SD rats; conditions: 2 μM, dialysis 4 hours 37° C.
# Method: 796 μL of bank plasma from humans, SD rats and CD-1 mice (plasma purchased from BioreclamationIVT) were weighed, and the assay compound working solution or warfarin working solution was added so that the final concentration of the assay compound and warfarin in the plasma sample was 2 μM. The samples were mixed thoroughly. The final concentration of DMSO in the organic phase was 0.5%, 50 μL of plasma samples of the assay compound and warfarin were pipetted to a sample receiving plate, and the corresponding volume of the corresponding blank plasma or buffer was added immediately, so that the final volume in each sample well was 100 μL, wherein the volume ratio of plasma:dialysis buffer was 1:1. Stop solution was then added to these samples. These samples were used as T0 samples for determination of recovery and stability. The plasma samples of the assay compound and warfarin were added to the dosing end of each dialysis well, and blank dialysis buffer was added to the corresponding receiving end of the dialysis well. […] All samples were subjected to protein precipitation, and then analyzed by LC/MS/MS. Unbound rate (% Unbound), bound rate (% Bound), and recovery rate (% Recovery) of the compound were calculated using the following formulae: % Unbound=100*FC/TC, % Bond=100−% Unbound, and % Recovery=100*[…]/T0, […]
# [5] = tested on: All other kinases (411 of 413 kinases); test: Kinase selectivity assay (Eurofins, 33P radiolabeled kinase activity): all other kinases; assay type: biochemical; conditions: WX009 1 μM, ATP 10 μM
# Method: as §1
# T1 sequence (P53671 whole entry, species assumed): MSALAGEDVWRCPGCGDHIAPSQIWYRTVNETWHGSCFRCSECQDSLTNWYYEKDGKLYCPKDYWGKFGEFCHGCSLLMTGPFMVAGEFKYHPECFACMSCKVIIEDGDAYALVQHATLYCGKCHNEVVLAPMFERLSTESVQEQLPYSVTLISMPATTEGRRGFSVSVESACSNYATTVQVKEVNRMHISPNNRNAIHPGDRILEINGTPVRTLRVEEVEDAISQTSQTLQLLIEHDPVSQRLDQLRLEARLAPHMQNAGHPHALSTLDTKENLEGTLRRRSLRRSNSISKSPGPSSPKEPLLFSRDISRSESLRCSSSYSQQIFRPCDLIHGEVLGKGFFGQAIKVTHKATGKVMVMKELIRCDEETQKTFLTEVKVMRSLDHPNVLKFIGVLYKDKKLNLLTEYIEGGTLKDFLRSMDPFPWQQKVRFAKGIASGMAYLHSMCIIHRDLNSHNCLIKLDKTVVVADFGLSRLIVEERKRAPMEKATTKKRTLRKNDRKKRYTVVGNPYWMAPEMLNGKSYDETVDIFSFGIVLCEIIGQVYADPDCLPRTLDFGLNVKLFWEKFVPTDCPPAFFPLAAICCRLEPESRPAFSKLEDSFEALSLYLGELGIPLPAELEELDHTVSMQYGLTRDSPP
smiles,measurement,setting,value
CN1C(=S)[C@@H](NC(=O)c2ncn(Cc3ccccc3)n2)COc2cccnc21 [WX009],IC50,[1],1.4 nM
same,inhibition at 1 µM,[2],50 to 79%
same,IC50,[3],0.103 µM
same,PPB_Unbound,[4],29.7%
same,Inhibition rate,[5],<50%
